A short description of series [1]: Pharmacokinetic properties in rats (IV and PO, whole blood LC-MS/MS). The format is in vivo, Spargue Dawley/CD, male. As to conditions: for Rat AUC0-24 h 3 mg/kg: 3 mg/kg PO, suspension; for Rat AUC0-24 h 3 mg/kg / clearance: whole blood; for clearance: male, Sprague Dawley/CD, rat, IV dosing (0.3-1 mg/kg), CL = Dose/AUCinf; for Rat F: oral bioavailability, PO 3 mg/kg vs IV. As for the experimental part:
The pharmacokinetic properties of the compounds in rats were assessed by the following in vivo studies as described below.
At least four days before first drug administration, the rats (250-350 g) were anesthetized and, under aseptic conditions, catheters were surgically implanted into the left and right jugular veins (one for blood collection and the other one for intravenous injection). The catheters were exteriorized and fixed at the neck. For analgesic treatment, animals received analgesics before surgery and subsequently twice at appropriate times after surgery. The freely-moving animals equipped with catheters are kept individually in Macrolon cages, with free access to food and water throughout the experiment. After a recovery phase of at least 4 days, a single test compound was administered intravenously or orally, based upon the individual body weights.
The test articles were administered as solution in NMP:PEG 200 (10:90 v/v). Test articles where no solution can be obtained were rejected and not used in discrete or cassette dosing.
The test article were administered as suspension in MC:Tween 80:water (0.5:0.1:99.4 w/v/v).
The test article was administered as solution and as a bolus injection or as short I.V. infusion (30 seconds) via the left jugular vein catheter to conscious rats. The dose volume was 0.5 mL/kg body weight.
The test article was administered as a solution or suspension into the esophagus via a gavage tube to conscious rats. The dose volume was 5 mL/kg body weight. The exact start time of dosing and exact dose volume was noted.
Blood samples (20 μL) were collected from the right jugular vein catheter of cannulated animals (if JV catheter becomes non patent during the PK experiment (i.e., after dosing), blood can exceptionally be collected by tail vein puncture but it must be clearly specified into the in-life observations and data study rep) in tubes containing 10% of blood of 2% W/V K2 EDTA (2.0 mg/mL) at the different time intervals. Blood was collected following IV dosing at 0.083, 0.25, 0.5, 1, 2, 4, 7 and 24 h post dose. Blood was collected following PO dosing: 0.25, 0.5, 1, 2, 4, 7 and 24 h post dose.
The concentrations of compounds in whole blood were quantified using a liquid chromatography/mass spectrometry (LC-MS/MS) assay. 20 μL of each blood sample were precipitated with 100 μL of acetonitrile containing generic internal standards (carbamazepine/telmisartan/verapamil; c=50 ng/mL). The samples were vortexed thoroughly then centrifuged (5 min, 4° C.). The supernatant (80 μL) was transferred to a clean 96-well plate and mixed with 80 μL of water.
The samples were injected (1 to 20 μL) onto suitable analytical columns, using various isocratic methods and flow rates. Mobile phases typically consisting of 0.1% formic acid in water (solvent A) and 0.1% formic acid in acetonitrile (solvent B) with additional modifiers, if needed. Compounds and the internal standards were eluted at various retention times. The HPLC systems were interfaced to mass spectrometers. MS/MS analyses were carried out using electrospray ionization (ESI), typically in the positive ionization mode. Compounds and the internal standards were monitored using multiple reaction monitoring (MRM).
The standard curves employed for sample quantitation ranged over several log units. The lower limit of quantitation (LLOQ) in blood was determined and used as cutoff for the analytical sensitivity. Known amounts of the compounds were spiked into blood to create quality control samples with six known concentrations in singlets. The accuracy of the in vivo blood sample concentration determination was considered acceptable when the intra-assay accuracies obtained for the quality control samples were within 70% to 130% of the expected concentrations. Subsequently, from the time concentration data, pharmacokinetic parameters were calculated by non-compartmental regression analyses using an in house fitting program. […]

Another series has as its target GIRK1/4 (Homo sapiens (Human), UniProt P48544+P48549). The series is described as follows: GIRK1/4 activity assay (Quattro/IonWorks population patch clamp, inward potassium current). The format is cell-based. The following applies: GIRK1/4 HEK293 stable cells; current inhibition normalized to DMSO-only control. The procedure: The GIRK1/4 activity of a compound according to the present invention was assessed by the following in vitro method.
• a. External buffer: 10 mM NaCl, 50 mM Na Gluconate, 80 mM K Gluconate, 1.8 mM CaCl2, 1 mM MgCl2, 10 mM HEPES, 10 mM Glucose, pH 7.4; osmolarity 300-310 Osm/L. • b. Internal buffer: 30 mM KCl, 100 mM K Gluconate, 1 mM MgCl2, 10 mM HEPES, 1 mM EGTA, 10 mM NaCl, pH 7.2; osmolarity 284-292 Osm/L. Compounds: • c. Prepare seven-fold compound dilution series (10 mM to 20 uM) in 100% DMSO, in 384-well polypropylene plates. • d. Propafenone (Sigma Aldrich, catalog number P4670) was used as a positive control and DMSO for neutral control • e. Resuspend 1 μl of compounds in DMSO into 66.7 μl external buffer in 384-well polypropylene plate and load into Plate 1 section of Molecular Devices Quattro® Quattro Setup: • f. Load 384-well Population Patch Plate (Molecular Devices #9000-0902) into Quattro • g. Fill Quattro F-soak trough with 20% DMSO and 50% EtOH • h. Fill Quattro buffer trough with external buffer • i. Attach internal buffer flask to Quattro internal buffer tubing • j. Attach PBS (Phosphate Buffered Saline, minus Ca^++ and Mg^++, pH7.4) bottle to F-head & E-head wash on Quattro Antibiotic: • k. Resuspend 5.1-5.8 mg amphotericin B (Sigma Aldrich, catalog number A2411) in 175 μl DMSO • l. Add the resulting solution to 50 mL internal buffer and attach to antibiotic tubing port on Quattro Cells: • m. Use GIRK1/4 HEK293 stable cells (obtained from ChanTest, 14656 Neo Parkway, Cleveland, Ohio 44128) grown to ˜80% confluency in the following cell culture medium: DMEM containing 10% (v/v) Fetal Bovine Serum, Penicillin/Streptomycin (at “IX” concentration from a 100× stock), 0.5 mg/mL G418 and 0.1 mg/mL Zeocin. • n. Detach cells using Detachin (Genlantis, 11011 Torreyana, San Diego, CA 92121), washed with PBS (minus Ca^++ and Mg^++) and resuspend in external buffer (5 mL final volume at 2.0-2.1×10^6 cells/mL) • o. Load into cell trough of Quattro Assay Protocol:
Quattro was controlled using IonWorks v2 software to perform the following steps: • p. Added 3.5 μl cells plus 3.5 μl external buffer to wells of Quattro Patch Plate® • q. Circulated amphotericin B and internal buffer onto cells • r. Applied the following voltage protocol: Pulse 1: 15 mV for 300 milliseconds (ms), followed by Pulse 2: −120 mV for 400 ms, then Pulse 3: −15 mV for 400 ms, and finally Pulse 4: −120 mV to 40 mV over 500 ms (this is a voltage ramp). • s. Measured magnitude of inward potassium current at time point between 1200-1220 ms from start of Pulse 1 (i.e., during the voltage ramp phase). • t. Added 3.5 μl of diluted compounds (or DMSO) to wells and repeated […] (final compound concentrations are 50 uM to 0.1 uM, and each concentration was tested in quadruplicate—i.e., in 4 separate wells). • u. The difference between current magnitude pre vs. post-compound gave a measure of GIRK1/4 inhibition. Data Analysis:
IC50 values were calculated by plotting the percentage of current inhibition (normalized to the DMSO-only control) as a function of compound concentration using standard data analysis software.
Background: The patch-clamp technique gives a direct electrical read-out from membranes.

SMILES strings stand for the structures.

Sequence of GIRK1/4 (P48549 whole entry): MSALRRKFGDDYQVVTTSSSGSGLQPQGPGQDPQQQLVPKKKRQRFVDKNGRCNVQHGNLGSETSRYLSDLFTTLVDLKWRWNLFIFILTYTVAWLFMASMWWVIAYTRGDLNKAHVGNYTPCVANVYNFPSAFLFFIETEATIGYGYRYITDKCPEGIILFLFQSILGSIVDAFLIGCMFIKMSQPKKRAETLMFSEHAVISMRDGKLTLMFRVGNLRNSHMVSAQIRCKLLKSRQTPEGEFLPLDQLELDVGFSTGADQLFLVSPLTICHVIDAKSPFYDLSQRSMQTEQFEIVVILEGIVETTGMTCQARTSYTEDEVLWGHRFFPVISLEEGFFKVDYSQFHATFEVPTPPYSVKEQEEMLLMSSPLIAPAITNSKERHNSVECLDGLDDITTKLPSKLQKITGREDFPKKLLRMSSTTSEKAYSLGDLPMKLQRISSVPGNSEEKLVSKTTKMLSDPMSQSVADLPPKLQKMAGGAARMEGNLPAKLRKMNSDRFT
Sequence of GIRK1/4 (P48544 whole entry): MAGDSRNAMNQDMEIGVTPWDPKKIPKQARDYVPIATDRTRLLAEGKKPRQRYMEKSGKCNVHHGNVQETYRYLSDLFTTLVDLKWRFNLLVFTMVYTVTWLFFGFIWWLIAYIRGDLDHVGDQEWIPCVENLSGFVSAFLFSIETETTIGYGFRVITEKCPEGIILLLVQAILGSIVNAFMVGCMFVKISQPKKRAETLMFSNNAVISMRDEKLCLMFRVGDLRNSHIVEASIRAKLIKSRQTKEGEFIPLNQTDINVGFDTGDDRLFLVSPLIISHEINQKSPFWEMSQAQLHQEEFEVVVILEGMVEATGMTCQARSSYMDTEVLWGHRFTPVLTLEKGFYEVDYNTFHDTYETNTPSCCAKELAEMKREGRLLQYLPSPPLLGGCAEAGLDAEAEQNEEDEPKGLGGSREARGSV

By IC50 is commonly meant the concentration needed to halve the response being measured. Low readings indicate greater potency in that assay, high ones weaker potency in that assay. Regarding `Cc1cc(=O)c2c(CC(C)S(C)(=O)=O)ncc(Cl)c2n1-c1c(Cl)cc(OCCO)cc1Cl` (single isomer, unassigned) [Example 21, 8-Chloro-1-(2,6-dichloro-4-(2-hydroxyethoxy)phenyl)-2-methyl-5-(2-(methylsulfonyl)propyl)-1,6-naphthyridin-4(1H)-one], in series [1], the “Rat AUC0-24 h 3 mg/kg” value was determined as 3200 nMh, the clearance was 10.4 mL/min/kg and the “Rat F” value is reported as 34%. The compound further came in with an IC50 against GIRK1/4 of 170 nM.
On to `Cc1cc(=O)c2c(OCC(=O)NCCO)ncc(Cl)c2n1-c1c(Cl)cc(OCCO)cc1Cl` [Example 2, 2-((8-Chloro-1-(2,6-dichloro-4-(2-hydroxyethoxy)phenyl)-2-methyl-4-oxo-1,4-dihydro-1,6-naphthyridin-5-yl)oxy)-N-(2-hydroxyethyl)acetamide], for which, in series [1], the “Rat AUC0-24 h 3 mg/kg” value is listed as 1288 nMh, the clearance amounted to 23 mL/min/kg and the “Rat F” value is on record as 29%. Further, the IC50 against GIRK1/4 was 220 nM.
The matching figures for `CNC(=O)CCOc1ncc(Cl)c2c1c(=O)cc(C)n2-c1c(Cl)cc(OCC(C)(C)O)cc1Cl` [Example 3, 3-((8-Chloro-1-(2,6-dichloro-4-(2-hydroxy-2-methylpropoxy)phenyl)-2-methyl-4-oxo-1,4-dihydro-1,6-naphthyridin-5-yl)oxy)-N-methylpropanamide]: 7738 nMh, 5.7 mL/min/kg, 47% and 220 nM.
For the compound `CNC(=O)COc1ncc(Cl)c2c1c(=O)cc(C)n2-c1c(Cl)cc(OCC(C)(C)O)cc1Cl` [Example 4, 2-((8-Chloro-1-(2,6-dichloro-4-(2-hydroxy-2-methylpropoxy)phenyl)-2-methyl-4-oxo-1,4-dihydro-1,6-naphthyridin-5-yl)oxy)-N-methylacetamide], in series [1], the “Rat AUC0-24 h 3 mg/kg” value is reported as 3674 nMh, the clearance turned out to be 5.5 mL/min/kg and the “Rat F” value was found to be 22%. This compound gave an IC50 against GIRK1/4 of 160 nM.
The matching figures for `CNC(=O)COc1ncc(Cl)c2c1c(=O)cc(C)n2-c1c(Cl)cc(OCCO)cc1Cl` [Example 5, 2-((8-Chloro-1-(2,6-dichloro-4-(2-hydroxyethoxy)phenyl)-2-methyl-4-oxo-1,4-dihydro-1,6-naphthyridin-5-yl)oxy)-N-methylacetamide]: 2336 nMh, 14.6 mL/min/kg, 33% and 60 nM.
With `CNC(=O)[C@@H](C)COc1ncc(Cl)c2c1c(=O)cc(C)n2-c1c(Cl)cc(OCCO)cc1Cl` [Example 8, (S)-3-((8-Chloro-1-(2,6-dichloro-4-(2-hydroxyethoxy)phenyl)-2-methyl-4-oxo-1,4-dihydro-1,6-naphthyridin-5-yl)oxy)-N,2-dimethylpropanamide], the IC50 against GIRK1/4 turned out to be 70 nM.
Same read-out and setting: to `CNC(=O)CCOc1ncc(Cl)c2c1c(=O)cc(C)n2-c1c(Cl)cc(OC[C@H](C)O)cc1Cl` [Example 10, (S)-3-((8-Chloro-1-(2,6-dichloro-4-(2-hydroxypropoxy)phenyl)-2-methyl-4-oxo-1,4-dihydro-1,6-naphthyridin-5-yl)oxy)-N-methylpropanamide] belongs 330 nM.
`CNC(=O)C(C)(C)COc1ncc(Cl)c2c1c(=O)cc(C)n2-c1c(Cl)cc(OCCO)cc1Cl` [Example 11, 3-((8-Chloro-1-(2,6-dichloro-4-(2-hydroxyethoxy)phenyl)-2-methyl-4-oxo-1,4-dihydro-1,6-naphthyridin-5-yl)oxy)-N,2,2-trimethylpropanamide] registered an IC50 on GIRK1/4 of 160 nM.
In turn, `CNC(=O)[C@H](O)COc1ncc(Cl)c2c1c(=O)cc(C)n2-c1c(Cl)cc(OCCO)cc1Cl` [Example 12, (R)-3-((8-Chloro-1-(2,6-dichloro-4-(2-hydroxyethoxy)phenyl)-2-methyl-4-oxo-1,4-dihydro-1,6-naphthyridin-5-yl)oxy)-2-hydroxy-N-methylpropanamide] registered an IC50 at GIRK1/4 of 200 nM. This IC50 and that of the compound before are within 1.5-fold of each other.
At GIRK1/4, `CNC(=O)[C@@H](O)COc1ncc(Cl)c2c1c(=O)cc(C)n2-c1c(Cl)cc(OCC(C)(C)O)cc1Cl` [Example 14, (S)-3-((8-chloro-1-(2,6-dichloro-4-(2-hydroxy-2-methylpropoxy)phenyl)-2-methyl-4-oxo-1,4-dihydro-1,6-naphthyridin-5-yl)oxy)-2-hydroxy-N-methylpropanamide] registered an IC50 of 170 nM.
On the same count and under the same terms, to `CNC(=O)C(F)(F)COc1ncc(Cl)c2c1c(=O)cc(C)n2-c1c(Cl)cc(OCCO)cc1Cl` [Example 16, 3-((8-Chloro-1-(2,6-dichloro-4-(2-hydroxyethoxy)phenyl)-2-methyl-4-oxo-1,4-dihydro-1,6-naphthyridin-5-yl)oxy)-2,2-difluoro-N-methylpropanamide] belongs 30 nM.
`Cc1cc(=O)c2c(OCCC(N)=O)ncc(Cl)c2n1-c1c(Cl)cc(OCCO)cc1Cl` [Example 18]: in series [1], the “Rat AUC0-24 h 3 mg/kg” value worked out at 1702 nMh, the clearance stood at 38.9 mL/min/kg and the “Rat F” value was found to be 65%.

The values are drawn from patent publication US12084442B2, “Naphthyridinone derivatives for the treatment of a disease or disorder” (Novartis AG, priority 2021, dated 2024).
